Reference: US10125126B2, “N-cycloalkyl-N-[(heterocyclylphenyl)methylene]-(thio)carboxamide derivatives” (BAYER CROPSCIENCE AG, priority 2012, dated 2018)

Key:
[1] = log P by HPLC on a reversed-phase column (C 18), EEC Directive 79/831 Annex V.A8; type: physicochemical; settings: HPLC on reversed-phase column (C 18), 40° C., 0.1% aqueous formic acid and acetonitrile, linear gradient 10% to 90% acetonitrile
Procedure, shortened: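 Retention times were converted to log P by linear interpolation between two successive unbranched alkan-2-ones (3 to 16 carbon atoms) of known log P used for calibration. Elution ran at 40° C with a linear gradient from 10% to 90% acetonitrile against 0.1% aqueous formic acid.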

Alternaria brassicae = assay: In vivo preventive test on Alternaria brassicae (leaf spot on radish); settings: 500 ppm of active ingredient; radish plants; 6 days after contamination
Experimental: In Vivo Preventive Test on Alternaria brassicae (Leaf Spot on Radish) […] Radish plants (“Pernod Clair” variety), sown in starter cups on a 50/50 peat soil pozzolana substrate and grown at 17° C., are treated at the cotyledon stage by spraying with the active ingredient prepared as described above. Plants, used as controls, are treated with the mixture of acetone/tween/DMSO/water not containing the active material. After 24 hours, the plants are contaminated by spraying the cotyledons with an aqueous suspension of Alternaria brassicae spores (50 000 spores per mL). The spores are collected from a 15-day-old culture. The contaminated radish plants are incubated at 20° C. and at 100% relative humidity. Grading (% of efficacy) is carried out 6 days after the contamination, in comparison with the control plants.

Botrytis cinerea = assay: In vivo preventive test on Botrytis cinerea (grey mould); settings: 500 ppm of active ingredient; gherkin plants; 4 to 5 days after contamination
Procedure, shortened: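 Gherkin plants at cotyledon stage Z11 were sprayed with compound, then inoculated 24 h later with Botrytis cinerea spores (50 000 spores per mL in nutrient solution). Plants were kept at 17° C and 90% RH, and percent efficacy versus solvent-treated controls was graded 4 to 5 days after contamination.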

Pyrenophora teres = assay: In vivo preventive test on Pyrenophora teres (barley); settings: 500 ppm of active ingredient; barley plants; 14 days after contamination
Experimental: In Vivo Preventive Test on Pyrenophora teres (Barley) […] Barley plants (“Plaisant” variety), sown in starter cups on a 50/50 peat soil pozzolana substrate and grown at 22° C., are treated at the 1 leaf stage (10 cm height) by spraying with the active ingredient prepared as described above. Plants, used as controls, are treated with the mixture of acetone/tween/DMSO/water not containing the active material. After 24 hours, the plants are contaminated by spraying the leaves with an aqueous suspension of Pyrenophora teres spores (12 000 spores per mL). The spores are collected from a 12-day-old culture. […] Grading (% of efficacy) is carried out 14 days after the contamination, in comparison with the control plants.

Pyricularia oryzae = type: in vivo; settings: 500 ppm of active ingredient; rice plants; 6 days after contamination
Puccinia recondita = assay: In vivo preventive test on Puccinia recondita (brown rust on wheat); settings: 500 ppm of active ingredient; wheat plants; 12 days after contamination
Procedure, shortened: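 Wheat plants ("Scipion") at 1-leaf stage, grown at 22° C, were sprayed with compound, then inoculated 24 h later with Puccinia recondita spores (100 000 spores per mL). Efficacy (%) graded 12 days after inoculation relative to solvent-treated controls.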

Septoria tritici = assay: In vivo preventive test on Septoria tritici (wheat); settings: 500 ppm of active ingredient; wheat plants; 24 days after contamination
Procedure, shortened: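 Scipion wheat grown at 22° C, sprayed at 1-leaf stage (10 cm); controls received acetone/tween/DMSO/water without active. Inoculated 24 h later with S. tritici spores (500 000/mL), held 72 h at 18° C, 100% RH, then 21 days at 90% RH. % efficacy vs controls scored 24 days post-inoculation.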

Sphaerotheca fuliginea = assay: In vivo preventive test on Sphaerotheca fuliginea (powdery mildew on cucurbits); settings: 500 ppm of active ingredient; gherkin plants; 12 days after contamination
Procedure, shortened: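 Gherkin plants ("Vert petit de Paris") grown at 24 °C were sprayed at cotyledon stage Z11; controls received acetone/tween/DMSO/water without active. Inoculation 24 h later by spraying cotyledons with 100 000 spores/mL. Efficacy (%) graded 12 days post-contamination versus controls.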

Uromyces appendiculatus = assay: In vivo preventive test on Uromyces appendiculatus (bean rust); settings: 500 ppm of active ingredient; bean plants; 11 days after contamination
Procedure, shortened: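 Saxa bean plants at 2-leaf stage, grown at 24° C., sprayed preventively with compound; 24 h later inoculated with U. appendiculatus spores (150 000 spores per mL). Percent efficacy graded 11 days after inoculation versus solvent-treated controls.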

Compound | logP [1] | Efficacy (Alternaria brassicae) [%] | Efficacy (Botrytis cinerea) [%] | Efficacy (Pyrenophora teres) [%] | Efficacy (Pyricularia oryzae) [%] | Efficacy (Puccinia recondita) [%] | Efficacy (Septoria tritici) [%] | Efficacy (Sphaerotheca fuliginea) [%] | Efficacy (Uromyces appendiculatus) [%]
CC(C)c1ccc(-c2coc3ccccc23)cc1CN(C(=O)c1c(C(F)F)nn(C)c1F)C1CC1 [I.132] | 4.90 | 97 | 99 | 88 | 80 | 83 | 100 | 100 | 77
Cc1csc(-c2ccc(C(C)C)c(CN(C(=O)c3c(C(F)F)nn(C)c3F)C3CC3)c2)c1 [I.106] | 4.93 | 100 | 80 | 93 | 80 |  | 80 | 100 | 
COc1ccsc1-c1ccc(F)cc1CN(C(=O)c1c(C(F)F)nn(C)c1F)C1CC1 [I.119] | 3.63 |  |  | 71 | 70 | 100 | 90 | 100 | 100
